Measurements reported in ChEMBL document CHEMBL1201862, “PubChem BioAssay data set” (2004).
Active and inactive are the calls of the source.

Tests used:
[1] = restored growth of temperature-sensitive Burl-1 yeast – whole organism, S. cerevisiae, Burl-1 ts mutant, luminescence, counter-screen for SUMOylation pathway inhibitor project, dose response (AID 463199); assay type: functional
[2] = molecular target: T1, Small ubiquitin-related modifier 2 (Homo sapiens, UniProt P61956); assay: SUMO2 binding disruption by SUMO1 hits – biochemical, FRET, human SUMO2, uHTS hits, selectivity assay for SUMO1 interaction inhibitor project, dose response (AID 624384); assay type: functional; details: read-out: IC50_Mean
[3] = molecular target: T2, Tyrosine-protein phosphatase non-receptor type 22 (Homo sapiens, UniProt Q9Y2R2); assay: SAR LYP1 Fluorescent Assay using OMFP substrate for In Vitro dose response studies - Set 2. [Related pubchem assays (depositor defined):AID1779, AID1784, AID2140, AID449726, AID488869]; assay type: functional
T2 sequence (Q9Y2R2 whole entry): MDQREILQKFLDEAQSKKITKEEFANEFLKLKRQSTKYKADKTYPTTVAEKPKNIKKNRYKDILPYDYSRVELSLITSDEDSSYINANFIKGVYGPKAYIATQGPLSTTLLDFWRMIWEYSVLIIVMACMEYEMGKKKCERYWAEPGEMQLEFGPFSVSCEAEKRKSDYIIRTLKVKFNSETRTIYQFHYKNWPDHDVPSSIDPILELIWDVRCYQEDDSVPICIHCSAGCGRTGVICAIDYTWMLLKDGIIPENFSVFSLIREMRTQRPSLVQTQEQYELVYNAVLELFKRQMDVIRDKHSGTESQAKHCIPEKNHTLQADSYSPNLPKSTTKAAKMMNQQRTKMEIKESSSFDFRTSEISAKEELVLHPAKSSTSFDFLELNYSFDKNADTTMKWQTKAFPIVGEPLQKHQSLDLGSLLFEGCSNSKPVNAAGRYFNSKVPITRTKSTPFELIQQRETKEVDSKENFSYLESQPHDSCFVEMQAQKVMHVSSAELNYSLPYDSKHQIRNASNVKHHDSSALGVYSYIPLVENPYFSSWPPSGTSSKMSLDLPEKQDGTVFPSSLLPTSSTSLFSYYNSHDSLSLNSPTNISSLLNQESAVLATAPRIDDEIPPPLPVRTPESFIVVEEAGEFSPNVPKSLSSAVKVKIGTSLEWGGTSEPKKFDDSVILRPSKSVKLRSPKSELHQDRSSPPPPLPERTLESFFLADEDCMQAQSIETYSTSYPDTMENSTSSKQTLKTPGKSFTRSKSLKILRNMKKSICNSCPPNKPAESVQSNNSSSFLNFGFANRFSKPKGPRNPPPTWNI

[4] = molecular target: T2, Tyrosine-protein phosphatase non-receptor type 22; assay: SAR LYP1 Fluorescent Assay using OMFP substrate for In Vitro dose response studies - Set 3. [Related pubchem assays (depositor defined):AID1779, AID1784, AID2140, AID2686]; assay type: functional
[5] = molecular target: Envelope glycoprotein gp160 (Human immunodeficiency virus 1, UniProt Q6QLK5); assay: cell-free HIV fusion peptide-binding blockers – biochemical, uHTS, fluorescence dequenching, […] (AID 1986)
Nonstructural protein 1 = Nonstructural protein 1 (Influenza A virus, UniProt Q194T2); assay type: functional, Influenza A virus (A/California/07/2009(H1N1))
[6] = molecular target: T2, Tyrosine-protein phosphatase non-receptor type 22; assay type: functional
[7] = molecular target: T2, Tyrosine-protein phosphatase non-receptor type 22; assay: PubChem AID 2135
[8] = molecular target: T3, Tyrosine-protein phosphatase non-receptor type 7 (Homo sapiens, UniProt P35236); assay type: functional
T3 sequence (P35236 whole entry): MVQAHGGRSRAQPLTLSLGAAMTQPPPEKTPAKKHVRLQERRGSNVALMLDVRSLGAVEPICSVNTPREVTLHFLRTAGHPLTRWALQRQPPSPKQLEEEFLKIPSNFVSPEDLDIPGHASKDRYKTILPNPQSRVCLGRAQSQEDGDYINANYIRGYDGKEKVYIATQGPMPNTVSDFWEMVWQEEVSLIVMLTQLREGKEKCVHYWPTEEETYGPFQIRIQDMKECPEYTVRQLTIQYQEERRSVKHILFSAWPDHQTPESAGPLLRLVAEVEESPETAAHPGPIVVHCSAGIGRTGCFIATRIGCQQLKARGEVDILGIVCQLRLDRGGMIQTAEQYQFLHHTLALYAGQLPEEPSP

[9] = molecular target: T2, Tyrosine-protein phosphatase non-receptor type 22; assay: PTPN22 lymphoid phosphatase activity blockers – biochemical, fluorescence intensity, uHTS (AID 1779)
[10] = molecular target: T1, Small ubiquitin-related modifier 2; assay: disruption of SUMO2 interaction with SIM peptide – biochemical, fluorescence polarization, uHTS hits, selectivity assay for SUMO1 interaction inhibitor project, dose response (AID 624385); assay type: functional; details: read-out: IC50_Mean
[11] = molecular target: T2, Tyrosine-protein phosphatase non-receptor type 22; assay: LYP1 Fluorescent Assay using OMFP substrate for In Vitro dose response studies. [Related pubchem assays (depositor defined):AID1779, AID1784, AID435024]
SUMO E1/E2 = SUMO E1/E2 (Homo sapiens, UniProt P63279+Q9UBE0+Q9UBT2); assay: SAR analysis of SUMOylation using HTRF in an in-Vitro dose response assay. [Related pubchem assays (depositor defined):AID2006, AID2011, AID2018, AID2069, AID2658]; assay type: functional
[12] = molecular target: T4, Small ubiquitin-related modifier 1 (Homo sapiens, UniProt P63165); assay: SUMO1 protein interaction blockers, potency – biochemical, fluorescence polarization, uHTS hits, dose response (AID 624382); assay type: functional; details: read-out: IC50_Mean
[13] = molecular target: T2, Tyrosine-protein phosphatase non-receptor type 22; assay: PubChem AID 2140
[14] = molecular target: T3, Tyrosine-protein phosphatase non-receptor type 7; assay: inhibition of hematopoietic tyrosine phosphatase HePTP – biochemical, set 2, SAR follow-up (AID 449736); assay type: functional
Bcl-2-like protein 1 = Bcl-2-like protein 1 (Homo sapiens, UniProt Q07817); assay: blockers of BCLXL peptide binding – biochemical, fluorescence polarization, 1536-well, selectivity assay for MCL1 inhibitor project, dose response (AID 2218)
[15] = molecular target: Induced myeloid leukemia cell differentiation protein Mcl-1 (Homo sapiens, UniProt Q07820); assay: blockers of MCL1 binding to BIM peptide – biochemical, fluorescence polarization, BIM-BH3 peptide, 1536-well, dose response (AID 2217)
[16] = molecular target: T2, Tyrosine-protein phosphatase non-receptor type 22; assay type: functional; remark: listed apart in the source
[17] = molecular target: Eukaryotic translation initiation factor 4E (Mus musculus, UniProt P63073); assay: blockers of eIF4G binding by eIF4E – biochemical, TR-FRET, dose response (AID 855); assay type: functional;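 also: potency for disrupting eIF4E binding to eIF4GI seen as loss of FRET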
[18] = molecular target: T3, Tyrosine-protein phosphatase non-receptor type 7; assay: HTS HePTP Fluorescent Assay using OMFP substrate for In Vitro dose response studies. [Related pubchem assays (depositor defined):AID1059, AID1077, AID1784, AID2068, AID2085, AID435032, AID521]; assay type: functional
[19] = molecular target: T2, Tyrosine-protein phosphatase non-receptor type 22; assay: SAR LYP1 Fluorescent Assay using pCAP substrate for In Vitro dose response studies - Set 2. [Related pubchem assays (depositor defined):AID1779, AID1784, AID2135, AID449727]; assay type: functional
Genome polyprotein = Genome polyprotein (dengue virus type 2, UniProt P29990); assay: flavivirus cap methylation enzyme inhibition – biochemical, confirmation dose response, primary screen (AID 588689); assay type: functional
[20] = molecular target: Tyrosine-protein phosphatase non-receptor type 12 (Homo sapiens, UniProt Q05209); assay: SAR Selectivity Analysis of small molecule inhibitors of PEST using pCAP in a fluorescence assay. [Related pubchem assays (depositor defined):AID1779, AID1784, AID2135]; assay type: functional
[21] = molecular target: T4, Small ubiquitin-related modifier 1; assay: SUMO1 protein-protein binding blockers, potency – biochemical, FRET, dose response (AID 624383); assay type: functional; details: read-out: IC50_Mean
[22] = general mammalian cell viability loss – activator set, cherry-pick, cytotoxicity control for miR-122 modulator project, dose response (AID 720690); assay type: functional, cell-based;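 also: HEK293T human cells scored for general mammalian cytotoxicity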
cells [23] = assay type: functional, cell-based
BJ [24] = assay: cells; assay type: functional, cell-based; details: Homo sapiens
BJ [25] = assay: BJ-TERT fibroblast viability loss – cell-based, RAS-independent, luminescence, dose response (AID 1933); assay type: functional; details: Homo sapiens
[26] = DRD fibroblast viability loss – cell-based, non-viral oncogenic, luminescence, dose response (AID 1934); assay type: functional; details: Homo sapiens
[27] = Trypanosoma cruzi growth suppression in host cells – NIH3T3 host cells, beta-gal luminescence, confirmation (AID 2044); assay type: functional, cell-based;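 also: intracellular parasites grown in NIH/3T3 mouse fibroblasts as host cells; luminescent beta-galactosidase reporter signal from transgenic T. cruzi replicating inside host cells; inhibitors lower the luminescence signal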
[28] = general mammalian cell viability loss – inhibitor set, cherry-pick, set 2, cytotoxicity control for miR-122 modulator project, dose response (AID 720697); assay type: functional, cell-based
BJ [29] = assay: BJ-TERT-LT-ST fibroblast viability loss – cell-based, RAS-independent, luminescence, dose response (AID 1935); assay type: functional; details: Homo sapiens;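 also: BJ fibroblasts immortalized with TERT plus LT and ST oncogenes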
[30] = loss of viability in HepG2 cells – cell-based, CellTiter-Glo, cherry-picked, cytotoxicity control for Shn3 inhibitor project, dose response (AID 624134); assay type: functional
[31] = reduction of Shn3 3'UTR-driven luciferase in osteoblasts – cell-based, Clone20 osteoblasts, firefly luciferase, cherry-picked, dose response (AID 624132); assay type: functional;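 also: firefly luciferase luminescence from reporter carrying the Shn3 3'UTR in osteoblasts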
[32] = MIN6 cell viability loss – mouse insulinoma, cytotoxicity control, dose response (AID 2122); assay type: functional;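 also: confirmatory high-throughput counterscreen run to flag cytotoxic compounds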
[33] = non-specific 3'UTR reporter inhibition in Clone20-Shn3RL – cell-based, Renilla luciferase, cherry-picked, counter-screen for Shn3 inhibitor project, dose response (AID 624133); assay type: functional
cells [34] = assay type: functional, cell-based; remark: listed apart in the source
[35] = decrease of insulin promoter-GFP reporter – imaging, high-content screening, mouse beta cells (AID 1628); assay type: functional; details: MIN6
INS1 = assay: INS-1E survival protection against cytokine death – cell-based, luminescence, retest, dose response (AID 449756); assay type: functional; details: Rattus norvegicus;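 also: cell death triggered by IL-1 beta plus TNF-alpha plus IFN-gamma mixture; protective hits raise ATP signal compared with cytokine alone wells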
[36] = NIH3T3 cell viability loss – ATP luminescence, mouse fibroblasts, counter-screen, dose response (AID 2010); assay type: functional, cell-based;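 also: cells exposed to compound for about 90 hours before reading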
Phosphomannomutase 2 = Phosphomannomutase 2 (Homo sapiens, UniProt O15305); assay: Counter screen SAR assay for PMM2 inhibitors via a fluorescence intensity assay. [Related pubchem assays (depositor defined):AID1545, AID1574]
[37] = molecular target: T5, Mannose-6-phosphate isomerase (Homo sapiens, UniProt P34949); assay: phosphomannose isomerase inhibition – biochemical, fluorescence intensity, confirmation (AID 1535)
T5 sequence (P34949 whole entry): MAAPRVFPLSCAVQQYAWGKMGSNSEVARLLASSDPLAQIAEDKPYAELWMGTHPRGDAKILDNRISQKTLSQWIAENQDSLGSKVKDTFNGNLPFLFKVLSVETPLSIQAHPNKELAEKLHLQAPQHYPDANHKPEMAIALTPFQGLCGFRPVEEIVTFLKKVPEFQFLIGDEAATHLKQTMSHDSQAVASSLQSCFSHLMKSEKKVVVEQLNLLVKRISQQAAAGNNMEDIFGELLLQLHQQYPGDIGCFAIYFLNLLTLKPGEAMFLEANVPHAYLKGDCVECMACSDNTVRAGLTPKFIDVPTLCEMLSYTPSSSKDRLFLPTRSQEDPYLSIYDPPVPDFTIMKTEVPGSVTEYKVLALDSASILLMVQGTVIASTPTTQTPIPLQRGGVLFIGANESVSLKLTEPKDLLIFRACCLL

T4 sequence (P63165 whole entry): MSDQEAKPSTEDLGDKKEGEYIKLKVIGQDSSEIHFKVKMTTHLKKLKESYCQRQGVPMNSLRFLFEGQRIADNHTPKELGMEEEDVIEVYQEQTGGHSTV
T1 sequence (P61956 whole entry): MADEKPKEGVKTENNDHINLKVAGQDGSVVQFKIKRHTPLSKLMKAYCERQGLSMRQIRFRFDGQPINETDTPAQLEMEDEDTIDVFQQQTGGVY
Sequence of Genome polyprotein (P29990 2492-3391 limits assumed): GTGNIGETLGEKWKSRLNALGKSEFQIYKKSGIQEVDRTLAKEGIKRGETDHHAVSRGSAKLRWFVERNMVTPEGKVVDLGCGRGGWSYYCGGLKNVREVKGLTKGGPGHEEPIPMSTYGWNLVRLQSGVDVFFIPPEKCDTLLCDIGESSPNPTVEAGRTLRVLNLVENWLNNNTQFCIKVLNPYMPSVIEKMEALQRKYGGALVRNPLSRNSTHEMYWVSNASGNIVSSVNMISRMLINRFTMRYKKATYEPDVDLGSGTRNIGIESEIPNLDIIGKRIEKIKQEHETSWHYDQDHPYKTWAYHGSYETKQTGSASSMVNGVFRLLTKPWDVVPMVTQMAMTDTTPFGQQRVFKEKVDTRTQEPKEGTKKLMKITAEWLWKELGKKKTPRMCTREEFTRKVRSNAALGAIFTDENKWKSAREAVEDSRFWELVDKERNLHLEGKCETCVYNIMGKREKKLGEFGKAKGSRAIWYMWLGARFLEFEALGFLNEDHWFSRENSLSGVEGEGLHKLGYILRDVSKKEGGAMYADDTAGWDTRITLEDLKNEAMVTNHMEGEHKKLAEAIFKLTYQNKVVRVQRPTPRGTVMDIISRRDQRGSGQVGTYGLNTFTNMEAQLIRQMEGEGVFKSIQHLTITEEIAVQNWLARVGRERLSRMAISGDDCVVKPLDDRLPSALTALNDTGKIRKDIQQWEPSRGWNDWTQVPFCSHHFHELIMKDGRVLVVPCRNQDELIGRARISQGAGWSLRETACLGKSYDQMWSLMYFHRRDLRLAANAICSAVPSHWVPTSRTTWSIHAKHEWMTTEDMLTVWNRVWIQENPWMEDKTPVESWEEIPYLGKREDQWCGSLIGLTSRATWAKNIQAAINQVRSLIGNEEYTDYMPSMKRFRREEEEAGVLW
Sequence of SUMO E1/E2 (Q9UBE0 whole entry): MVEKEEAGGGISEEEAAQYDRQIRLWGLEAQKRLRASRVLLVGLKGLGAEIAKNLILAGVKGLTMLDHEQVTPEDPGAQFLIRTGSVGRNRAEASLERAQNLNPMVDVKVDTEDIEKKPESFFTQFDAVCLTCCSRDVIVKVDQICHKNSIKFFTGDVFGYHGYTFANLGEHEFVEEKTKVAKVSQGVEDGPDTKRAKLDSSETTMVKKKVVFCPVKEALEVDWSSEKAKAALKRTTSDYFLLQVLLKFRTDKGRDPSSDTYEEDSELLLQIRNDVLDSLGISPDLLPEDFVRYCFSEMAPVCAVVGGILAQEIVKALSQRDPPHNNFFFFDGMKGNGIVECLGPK
Sequence of SUMO E1/E2 (Q9UBT2 whole entry): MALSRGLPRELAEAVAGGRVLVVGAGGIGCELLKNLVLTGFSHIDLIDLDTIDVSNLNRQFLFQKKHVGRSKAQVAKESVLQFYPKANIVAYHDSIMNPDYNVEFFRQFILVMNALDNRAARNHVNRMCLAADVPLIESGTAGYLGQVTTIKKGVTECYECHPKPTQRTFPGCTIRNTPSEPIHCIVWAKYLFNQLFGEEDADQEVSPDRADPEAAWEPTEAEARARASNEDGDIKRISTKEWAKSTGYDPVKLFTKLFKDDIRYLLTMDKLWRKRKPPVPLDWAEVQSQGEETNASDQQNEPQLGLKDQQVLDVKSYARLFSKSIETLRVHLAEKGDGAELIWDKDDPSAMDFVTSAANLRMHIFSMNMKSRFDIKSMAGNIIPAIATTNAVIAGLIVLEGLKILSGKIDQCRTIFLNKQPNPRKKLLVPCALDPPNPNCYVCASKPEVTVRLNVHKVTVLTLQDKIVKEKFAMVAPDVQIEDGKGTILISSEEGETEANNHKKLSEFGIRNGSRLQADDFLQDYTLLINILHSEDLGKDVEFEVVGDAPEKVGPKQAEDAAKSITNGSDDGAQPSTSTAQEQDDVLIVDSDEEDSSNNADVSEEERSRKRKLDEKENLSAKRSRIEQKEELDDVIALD
Sequence of SUMO E1/E2 (P63279 whole entry): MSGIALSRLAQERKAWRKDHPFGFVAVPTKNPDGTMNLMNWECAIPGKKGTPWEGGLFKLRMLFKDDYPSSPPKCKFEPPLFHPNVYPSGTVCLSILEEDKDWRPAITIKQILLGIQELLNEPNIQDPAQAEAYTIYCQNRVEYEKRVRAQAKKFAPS
Sequence of Eukaryotic translation initiation factor 4E (P63073 whole entry): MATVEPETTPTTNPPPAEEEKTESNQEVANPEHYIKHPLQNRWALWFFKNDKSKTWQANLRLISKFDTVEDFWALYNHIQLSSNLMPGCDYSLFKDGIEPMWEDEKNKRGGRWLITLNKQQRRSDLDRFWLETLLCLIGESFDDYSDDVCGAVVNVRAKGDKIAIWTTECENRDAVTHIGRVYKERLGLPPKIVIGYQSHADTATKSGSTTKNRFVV
Sequence of Tyrosine-protein phosphatase non-receptor type 12 (Q05209 whole entry): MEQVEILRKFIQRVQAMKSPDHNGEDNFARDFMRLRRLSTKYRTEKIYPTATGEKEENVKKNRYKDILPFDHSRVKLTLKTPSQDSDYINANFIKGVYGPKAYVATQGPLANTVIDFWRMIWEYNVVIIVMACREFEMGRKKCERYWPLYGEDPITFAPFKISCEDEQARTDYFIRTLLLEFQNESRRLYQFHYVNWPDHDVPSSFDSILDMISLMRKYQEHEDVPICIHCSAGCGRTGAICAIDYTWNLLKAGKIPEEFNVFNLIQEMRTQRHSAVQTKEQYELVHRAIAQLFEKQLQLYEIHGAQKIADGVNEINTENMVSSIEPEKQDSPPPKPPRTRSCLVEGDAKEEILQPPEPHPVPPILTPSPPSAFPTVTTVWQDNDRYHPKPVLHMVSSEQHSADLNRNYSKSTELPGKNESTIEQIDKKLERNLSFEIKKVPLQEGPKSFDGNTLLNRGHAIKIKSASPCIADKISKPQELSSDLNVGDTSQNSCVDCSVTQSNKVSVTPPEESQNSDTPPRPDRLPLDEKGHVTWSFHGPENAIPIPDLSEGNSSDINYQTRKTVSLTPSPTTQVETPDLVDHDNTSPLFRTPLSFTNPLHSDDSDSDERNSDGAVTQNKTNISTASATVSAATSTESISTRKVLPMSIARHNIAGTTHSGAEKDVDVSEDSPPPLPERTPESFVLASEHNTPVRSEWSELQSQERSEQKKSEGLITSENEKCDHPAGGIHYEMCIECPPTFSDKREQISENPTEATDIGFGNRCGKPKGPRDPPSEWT
Sequence of Envelope glycoprotein gp160 (Q6QLK5 whole entry, the tested form may be a part): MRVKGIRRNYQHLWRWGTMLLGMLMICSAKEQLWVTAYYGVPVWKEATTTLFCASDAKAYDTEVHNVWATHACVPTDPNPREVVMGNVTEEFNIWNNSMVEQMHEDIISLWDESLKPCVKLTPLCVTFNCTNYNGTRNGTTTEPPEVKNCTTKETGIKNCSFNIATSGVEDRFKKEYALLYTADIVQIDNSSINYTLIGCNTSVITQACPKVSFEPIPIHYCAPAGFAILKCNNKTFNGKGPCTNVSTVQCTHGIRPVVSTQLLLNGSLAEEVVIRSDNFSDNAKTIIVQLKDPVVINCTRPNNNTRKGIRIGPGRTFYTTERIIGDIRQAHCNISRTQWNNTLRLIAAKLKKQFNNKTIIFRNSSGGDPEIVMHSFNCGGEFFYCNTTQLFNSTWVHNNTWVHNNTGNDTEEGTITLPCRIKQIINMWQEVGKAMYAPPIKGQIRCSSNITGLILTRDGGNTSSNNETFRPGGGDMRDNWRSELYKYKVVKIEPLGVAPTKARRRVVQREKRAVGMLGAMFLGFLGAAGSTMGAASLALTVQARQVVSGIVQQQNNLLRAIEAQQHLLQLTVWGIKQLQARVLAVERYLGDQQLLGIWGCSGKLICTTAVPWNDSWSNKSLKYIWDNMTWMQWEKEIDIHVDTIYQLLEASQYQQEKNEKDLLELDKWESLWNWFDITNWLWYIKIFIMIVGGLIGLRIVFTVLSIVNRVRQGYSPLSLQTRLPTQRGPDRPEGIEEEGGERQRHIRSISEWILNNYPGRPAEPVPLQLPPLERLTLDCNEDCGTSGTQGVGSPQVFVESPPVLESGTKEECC
Sequence of Nonstructural protein 1 (Q194T2 whole entry): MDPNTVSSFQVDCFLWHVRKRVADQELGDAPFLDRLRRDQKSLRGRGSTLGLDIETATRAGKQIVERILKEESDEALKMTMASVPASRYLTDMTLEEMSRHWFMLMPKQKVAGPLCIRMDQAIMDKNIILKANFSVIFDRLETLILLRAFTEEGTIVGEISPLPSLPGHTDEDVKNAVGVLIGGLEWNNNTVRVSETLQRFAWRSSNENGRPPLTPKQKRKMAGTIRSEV
Sequence of Phosphomannomutase 2 (O15305 whole entry): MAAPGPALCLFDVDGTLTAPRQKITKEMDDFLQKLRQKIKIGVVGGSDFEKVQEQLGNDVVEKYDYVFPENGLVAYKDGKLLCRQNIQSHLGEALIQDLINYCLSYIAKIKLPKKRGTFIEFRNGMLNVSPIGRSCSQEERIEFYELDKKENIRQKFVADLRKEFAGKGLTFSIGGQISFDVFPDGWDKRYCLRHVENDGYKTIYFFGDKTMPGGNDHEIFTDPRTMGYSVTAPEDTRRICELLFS
Sequence of Induced myeloid leukemia cell differentiation protein Mcl-1 (Q07820 whole entry): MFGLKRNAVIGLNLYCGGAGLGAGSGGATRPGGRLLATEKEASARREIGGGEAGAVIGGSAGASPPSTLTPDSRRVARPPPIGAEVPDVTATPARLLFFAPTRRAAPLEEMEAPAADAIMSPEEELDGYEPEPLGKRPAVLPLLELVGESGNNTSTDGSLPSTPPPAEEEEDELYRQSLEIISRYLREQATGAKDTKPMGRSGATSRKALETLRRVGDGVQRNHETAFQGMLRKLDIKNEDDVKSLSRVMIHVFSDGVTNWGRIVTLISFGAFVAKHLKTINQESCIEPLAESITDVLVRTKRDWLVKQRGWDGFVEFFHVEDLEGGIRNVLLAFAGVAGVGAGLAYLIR

## O=C1CN(C(=O)COC(=O)COc2ccc3c(c2)CCC3)c2ccccc2N1
[1]
  AC50: 48.6 µM (active)

## Cc1c(Cl)cccc1NS(=O)(=O)c1ccc2c(c1)C1C=CCC1C(c1ccc(C(=O)O)cc1)N2 (stereo not drawn)
[2]
  IC50: 5.02 µM (active)
[3]
  IC50: 43.7 µM (active)
[4]
  IC50: 15.8 µM (active)
[5]
  IC50: 5.02 µM (active)
Nonstructural protein 1
  IC50: 82.4 µM (active)
[6]
  IC50: 19.6 µM (active)
[7]
  IC50: > 100 µM (inactive)
[8]
  IC50: 49.8 µM (active)
[9]
  IC50: 20.8 µM (active)
[10]
  IC50: 12.6 µM (active)
[11]
  IC50: 39.9 µM (active)
SUMO E1/E2
  IC50: 26.9 µM (active)
[12]
  IC50: 5.38 µM (active)
[13]
  IC50: 47.4 µM (active)
[14]
  IC50: 3.93 µM (active)
Bcl-2-like protein 1
  IC50: 50.8 µM (not active)
[15]
  IC50: 6.54 µM (active)
[16]
  IC50: 48.5 µM (active)
[17]
  IC50: 14.2 µM (active)
[18]
  IC50: 37.5 µM (active)
[19]
  IC50: 45 µM (active)
Genome polyprotein
  IC50: 62.2 µM (active)
[20]
  IC50: 2.36 µM (active)
[21]
  IC50: 23.6 µM (inactive)

## Cc1ccc(Nc2c(-c3ccccn3)nc3cc(C)ccn23)cc1
[22]
  AC50: 15.5 µM (active)
Cells [23]
  EC50: 49.3 µM (active)
BJ [24]
  EC50: 12.2 µM (active)
BJ [25]
  EC50: 7.37 µM (active)
[26]
  EC50: 13.2 µM (active)
[27]
  EC50: 0.951 µM (active)
[28]
  AC50: 5.48 µM (active)
BJ [29]
  EC50: 7.83 µM (inconclusive)
[30]
  AC50: 4.06 µM (active)
[31]
  AC50: 1.36 µM (active)
[32]
  IC50: 0.61 µM (active)
[33]
  AC50: 61.3 µM (active)
Cells [34]
  EC50: 4.69 µM (active)
[35]
  IC50: 1.7 µM (active)
INS1
  AC50: 4.81 µM (active)
[36]
  EC50: 4.56 µM (active)

## O=P(c1ccccc1)(c1nc2ccccc2s1)N1CCOCC1 (stereo not drawn)
Phosphomannomutase 2
  IC50: > 100 µM (inactive)
[37]
  IC50: > 50 µM (inactive)
